Results from article PMC3314626, “Crystal Structures of the Tetratricopeptide Repeat Domains of Kinesin Light Chains: Insight into Cargo Recognition Mechanisms” (PLoS ONE, 2012).
Entries after “also recorded” stand apart in the source; their conditions may differ. Like-named read-outs stand apart in the source and are kept apart here. Blank lines part the entries; values can stand above or below the compound they belong to.

Key:
KLC1-TPR [1] = molecular target: T1, KLC1-TPR (Homo sapiens, UniProt Q07866); assay: ITC binding of JIP1 or ALC1 peptide to KLC1-TPR; conditions: 25°C; for Kd / ΔH: 20 mM Bis-Tris pH 6.5, 500 mM NaCl, 0.5 mM TCEP; for Kd: Kd determined from Ka of one-site fit, Table 3; for Kd / N (binding stoichiometry) / ΔH: ± SD from fit; for ΔS / N (binding stoichiometry): pH 6.5, 500 mM NaCl; for ΔS / N (binding stoichiometry) / ΔH: one-site model; for ΔH: peptide 1–3 mM injected into 60–130 µM KLC1-TPR
T1 construct: KLC1-TPR (residues 228–495, genbank: NP_005543); made in house; host or cells: E. coli BL21(DE3)-CodonPlus-RIL
Procedure: (§1) DNAs encoding the TPR domains of KLC1-TPR (residues 228–495, genbank: NP_005543) and KLC2-TPR (residues 217–480, genbank: NP_073733) were amplified by polymerase chain reaction (PCR) using cDNAs obtained from the Mammalian Gene Collection as templates. The PCR products were cloned into a modified version of the expression plasmid pET28-LIC (genbank: EF442785) using an Infusion cloning kit (ClonTech). The KLC1-N343S and KLC2-S328N mutants were prepared with a QuickChange® kit (Stratagene).
(§2) Binding affinities of the JIP1 peptide (Ac-EYTCPTEDIYLE-COOH), ALC1peptide (Ac-EMDWDDSALT-COOH) (synthesized by Tufts University Core Facility), and ALC1 protein to the KLC1-TPR, KLC2-TPR and their mutants were measured by isothermal titration calorimetry (ITC) (VP-ITC microcalorimeter, MicroCal Inc.). Measurements were performed at 25°C by injecting 5–10 µl of peptide solution (1–3 mM) into a sample chamber containing 60–130 µM KLC1-TPR or KLC2-TPR in 20 mM Bis-Tris, pH 6.5, 500 mM sodium chloride, and 0.5 mM TCEP. For the protein-protein interaction, the sample chamber contained 15 µM of KLC1-TPR and 160 µM of the ALC1 protein in a buffer containing 30 mM HEPES 7.4, 200 mM NaCl, 0.5 mM TCEP. The syringe injections containing peptides and proteins were dissolved and dialyzed in the same buffer as the KLC proteins prior to the experiments. A total of 25 injections were performed with an interval of 300 seconds and a reference power of 13 µcal/second. The heat of dilution was controlled with binding isotherms from reference injections containing the peptide alone prior to fitting of the data. ITC data were analyzed using Origin software (MicroCal Inc) and were fit using a one-site binding model.

KLC2-TPR = molecular target: T2, KLC2-TPR (Homo sapiens, UniProt Q9H0B6); assay: ITC binding of JIP1 peptide to KLC2-TPR; conditions: 25°C
T2 construct: KLC2-TPR (residues 217–480, genbank: NP_073733); made in house; host or cells: E. coli BL21(DE3)-CodonPlus-RIL
Procedure: as §1, §2

KLC1-N343S = molecular target: T3, KLC1-N343S (Homo sapiens, UniProt Q07866, N343S); assay: ITC binding of JIP1 or ALC1 peptide to KLC1-N343S mutant; conditions: 25°C; for ΔS / N (binding stoichiometry) / Kd / ΔH: one-site model, N.B = no binding was observed; for N (binding stoichiometry) / Kd / ΔH: ± SD from fit; for ΔH: peptide 1–3 mM into chamber, 20 mM Bis-Tris pH 6.5, 500 mM NaCl, 0.5 mM TCEP
T3 construct: KLC1-TPR (residues 228–495, genbank: NP_005543); made in house; host or cells: E. coli BL21(DE3)-CodonPlus-RIL
Procedure: as §1, §2

KLC2-S328N = molecular target: T4, KLC2-S328N (Homo sapiens, UniProt Q9H0B6, S328N); assay: ITC binding of JIP1 peptide to KLC2-S328N mutant; conditions: 25°C
T4 construct: KLC2-TPR (residues 217–480, genbank: NP_073733); made in house; host or cells: E. coli BL21(DE3)-CodonPlus-RIL
Procedure: as §1, §2

KLC1-N301A = molecular target: T5, KLC1-N301A (Homo sapiens, UniProt Q07866, N301A); assay: ITC binding of ALC1 peptide to KLC1-N301A mutant; conditions: 25°C
T5 construct: KLC1-TPR (residues 228–495, genbank: NP_005543); made in house; host or cells: E. coli BL21(DE3)-CodonPlus-RIL
Procedure: as §2
Tryptophans at position 903 and 973 of ALC1 are crucial in binding to KLC1 as their mutation to alanines disrupt the interaction. There are two negatively charged aspartic acids and a polar serine residue adjacent to the tryptophans. Due to the similarities of the ALC1 residues to those of JIP1, the recognition of ALC1 by KLC1-TPR could also involve a “clamping” feature. However, such clamp must be different from the JIP1 binding polar patch as N343 is not required for ALC1 binding. Also, residues lining the ALC1 binding clamp should be conserved between KLC1-TPR and KLC2-TPR as ALC1 can interact with both isoforms. Possible candidates are N301 and N344 residues in the inner helices of TPR3 and TPR4 of KLC1-TPR. N301 extends toward the neighboring helix and interacts with N344, and is adjacent to K340 and Q341. As these residues are conserved in KLC2-TPR, N301 of KLC1-TPR was mutated into an alanine (KLC1-N301A) and tested its binding behavior towards ALC1 peptide. […] Together, N301 of KLC1-TPR plays an important role in binding of ALC1, probably by forming one of the ALC1 binding clamps.

KLC1-TPR [2] = molecular target: T1, KLC1-TPR; assay: ITC binding of cytosolic domain of ALC1 protein to KLC1-TPR
Procedure: as §1, §2
In order to elucidate a comprehensive view of ALC1 binding to KLC isoforms, the cytosolic domain of ALC1 was purified for the ITC binding studies. […] This would cause the modest increase in binding affinity to KLC1-TPR, compared to the ALC1 peptide. […]

[3] = pH 6.5, 500 mM NaCl, N.B = no binding was observed
[4] = pH 6.5, 500 mM NaCl, one-site model
[5] = pH 6.5, 500 mM NaCl, one-site model, ± SD from fit
[6] = peptide 1–3 mM into chamber, 20 mM Bis-Tris pH 6.5, 500 mM NaCl, 0.5 mM TCEP, one-site model, ± SD from fit

T1 sequence (Q07866 228-495): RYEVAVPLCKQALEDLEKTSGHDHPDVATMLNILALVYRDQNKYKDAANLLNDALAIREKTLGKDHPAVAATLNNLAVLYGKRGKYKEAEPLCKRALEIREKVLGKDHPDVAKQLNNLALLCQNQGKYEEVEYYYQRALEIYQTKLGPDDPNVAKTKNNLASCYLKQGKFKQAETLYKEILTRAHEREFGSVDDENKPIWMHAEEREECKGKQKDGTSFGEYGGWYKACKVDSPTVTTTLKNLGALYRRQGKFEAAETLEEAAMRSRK
T5 sequence (Q07866 228-495 N301A): as the sequence (Q07866 228-495) above, with N74A counted along it
T4 sequence (Q9H0B6 217-480 S328N): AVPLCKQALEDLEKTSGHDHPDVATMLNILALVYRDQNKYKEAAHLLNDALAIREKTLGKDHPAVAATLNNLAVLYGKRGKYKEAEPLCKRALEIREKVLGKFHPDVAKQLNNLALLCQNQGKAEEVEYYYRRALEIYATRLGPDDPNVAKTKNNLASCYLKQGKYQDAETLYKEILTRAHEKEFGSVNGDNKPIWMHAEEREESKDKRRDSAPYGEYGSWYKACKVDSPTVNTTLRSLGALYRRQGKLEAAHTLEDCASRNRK
T3 sequence (Q07866 228-495 N343S): as the sequence (Q07866 228-495) above, with N116S counted along it
T2 sequence (Q9H0B6 217-480): as the sequence (Q9H0B6 217-480 S328N) above, with N112S counted along it

Kd (KLC1-TPR [1]): 9.4 ± 5.85 µM | ΔS (KLC1-TPR [1]): 17.9 eu | N (binding stoichiometry) (KLC1-TPR [1]): 1.02±0.1 | interaction with KLC1-TPR (in words) (KLC1-TPR [1]; pH 6.5, Figure S3A): specifically binds to KLC1-TPR | ΔH (KLC1-TPR [1]): -1.52 ± 0.182 kcal/mol | Kd (KLC2-TPR; [3]): N.B | N (binding stoichiometry) (KLC2-TPR; [3]): N.B | ΔS (KLC2-TPR; [3]): N.B | ΔH (KLC2-TPR; peptide 1–3 mM into 60–130 µM KLC2-TPR, 20 mM Bis-Tris pH 6.5, 500 mM NaCl, 0.5 mM TCEP, N.B = no binding was observed): N.B | ability to bind (in words) (KLC1-N343S; pH 6.5, 500 mM NaCl): lost the ability to bind | ΔS (KLC1-N343S; pH 6.5, 500 mM NaCl): N.B | N (binding stoichiometry) (KLC1-N343S; pH 6.5, 500 mM NaCl): N.B | Kd (KLC1-N343S; pH 6.5, 500 mM NaCl, Table 3): N.B | ΔH (KLC1-N343S): N.B | ability to bind (in words) (KLC2-S328N; pH 6.5, 500 mM NaCl): gained binding capacity | ΔS (KLC2-S328N; [4]): −31.8 eu | N (binding stoichiometry) (KLC2-S328N; [5]): 1.18±0.01 | ΔH (KLC2-S328N; [6]): -15.9 ± 1.6 kcal/mol
Compound: CC[C@H](C)[C@H](NC(=O)[C@H](CC(=O)O)NC(=O)[C@H](CCC(=O)O)NC(=O)[C@@H](NC(=O)[C@@H]1CCCN1C(=O)[C@H](CS)NC(=O)[C@@H](NC(=O)[C@H](Cc1ccc(O)cc1)NC(=O)[C@H](CCC(=O)O)NC(C)=O)[C@@H](C)O)[C@@H](C)O)C(=O)N[C@@H](Cc1ccc(O)cc1)C(=O)N[C@@H](CC(C)C)C(=O)N[C@@H](CCC(=O)O)C(=O)O [JIP1 peptide, Ac-EYTCPTEDIYLE-COOH]
interaction with KLC2-TPR (in words) (KLC2-TPR; pH 6.5, 500 mM NaCl): no interaction was detected; also recorded: not to KLC2-TPR

Kd (KLC1-TPR [1]): 50.3 ± 3.1 µM | ΔS (KLC1-TPR [1]): 11.4 eu | N (binding stoichiometry) (KLC1-TPR [1]): 1.85 | N (binding stoichiometry) (KLC1-TPR [1]; listed as ALC1): 1.85±0.04 | ΔH (KLC1-TPR [1]): -2.5 ± 0.07 kcal/mol | ΔS (KLC1-N343S; pH 6.5, 500 mM NaCl): 14.1 eu | N (binding stoichiometry) (KLC1-N343S; pH 6.5, 500 mM NaCl): 2.13 | Kd (KLC1-N343S; pH 6.5, 500 mM NaCl, Table 3, read-out: Kd): 44.3 ± 7.5 µM | N (binding stoichiometry) (KLC1-N343S; pH 6.5, 500 mM NaCl, listed as ALC1): 2.13±0.15 | ΔH (KLC1-N343S): -1.7 ± 0.16 kcal/mol | affinity compared with wild type KLC1 (in words) (KLC1-N301A; pH 6.5, 500 mM NaCl): lower affinity than the wild type KLC1 | ΔS (KLC1-N301A; [4]): 12.9 eu | N (binding stoichiometry) (KLC1-N301A; [5]): 1.02 | Kd (KLC1-N301A; pH 6.5, 500 mM NaCl, one-site model, ± SD from fit, Table 3): 179 ± 127 µM | N (binding stoichiometry) (KLC1-N301A; pH 6.5, 500 mM NaCl, one-site model, ± SD from fit, listed as ALC1): 1.02±0.69 | ΔH (KLC1-N301A; [6]): -1.2 ± 0.99 kcal/mol
Compound: Ac-EMDWDDSALT-OH [ALC1 peptide, Ac-EMDWDDSALT-COOH]

Kd (KLC1-TPR [2]; 25°C, 15 µM KLC1-TPR, 160 µM ALC1 protein, 30 mM HEPES 7.4, 200 mM NaCl, 0.5 mM TCEP, one-site model): 2.4 µM | binding stoichiometry (KLC1-TPR [2]; 25°C, 30 mM HEPES 7.4, 200 mM NaCl, 0.5 mM TCEP, one-site model): 0.85 | affinity compared with the ALC1 peptide (in words) (KLC1-TPR [2]; KLC1-TPR): higher affinity than the ALC1 peptide
Compound: cytosolic domain of ALC1: purified cytosolic domain of ALC1, containing two KLC1-binding motifs (residues 893–896 and 964–967)
